The values that follow come from patent publication US20230159552A1, “[…] ITS ANALOGUES, METHODS FOR THEIR PREPARATION, AND METHODS OF USE” (priority 2020, published 2023).

SMILES strings stand for the structures. Where two headings read alike, the source gives them in different places.

One test has as its system L1210. As to the kind of experiment: Cytotoxicity against L1210 cell line. It is filed as cell-based. The conditions noted are these: Mus musculus, murine lymphocytic leukemia cell line. The text has this:
(§1) The results of the initial evaluation for cytotoxicity against various cancer cell lines of analogues 38a-f, along with those for 1, 36 and intermediate alcohol 35 are summarized in Table A. L1210 is a murine lymphocytic leukemia cell line. HCT116 and HCT116/VM46 are human colon cancer cell lines, with the latter being a multi-drug resistant variant of the former. MCF-7 is a human breast cancer cell line.

Another test concerns HCT116. Description: Cytotoxicity against HCT116 cell line. In kind it is cell-based, human.
From the text: as §1

In another test the test system is HCT116/VM46. As to the kind of experiment: Cytotoxicity against HCT116/VM46 cell line (multi-drug resistant variant). In kind it is cell-based, human.
From the text: as §1

For another test, the system named is MCF-7. As to the kind of experiment: Cytotoxicity against MCF-7 cell line. In kind it is cell-based, human.
From the text: as §1

Where [1] appears, read: HCT-116, human colon cancer cell line, read-out: Cell Line (IC50, nM) HCT116.
Setting [2] is: HCT-116/VM46, multi-drug resistant human colon cancer cell line, read-out: Cell Line (IC50, nM) HCT116/ VM46.
[3] abbreviates: MCF7, human breast cancer cell line, read-out: Cell Line (IC50, nM) MCT-7.

In the case of `CC(/C=C/[C@H]1OC(C)(C)C[C@@]2(CO2)[C@@H]1O)=C\C[C@@H]1O[C@H](C)[C@H](NC(=O)/C=C\[C@H](C)O)C[C@@H]1C` [Compound 35], the IC50 was 7.8 nM with L1210, 9.7 nM in the test with HCT116 (setting [1]), 7.4 nM with HCT116/VM46 (setting [2]) and 47 nM in the test with MCF-7 (setting [3]).
As for `CC(/C=C/[C@H]1OC(C)(C)C[C@@]2(CO2)[C@@H]1O)=C\C[C@@H]1O[C@H](C)[C@H](NC(=O)/C=C\[C@H](C)OC(=O)N2CCN(C)CC2)C[C@@H]1C` [Compound 36], the IC50 in the test on L1210 turned out to be 790 nM; in the test on HCT116 (setting [1]), 630 nM; with HCT116/VM46 (setting [2]), 840 nM; with MCF-7 (setting [3]), 930 nM.
For `CC(/C=C/[C@H]1OC(C)(C)C[C@@]2(CO2)[C@@H]1O)=C\C[C@@H]1O[C@H](C)[C@H](NC(=O)/C=C\[C@H](C)OC(=O)N2CCSCC2)C[C@@H]1C` [Compound 38b], in that order: 0.6 nM, 0.48 nM, 0.52 nM and 0.42 nM.
The like results for `CC(/C=C/[C@H]1OC(C)(C)C[C@@]2(CO2)[C@@H]1O)=C\C[C@@H]1O[C@H](C)[C@H](NC(=O)/C=C\[C@H](C)OC(=O)N2CCCCC2)C[C@@H]1C` [Compound 38c] were, in that order, 0.44 nM, 0.68 nM, 0.59 nM and 2.7 nM.
The like results for `CC(/C=C/[C@H]1OC(C)(C)C[C@@]2(CO2)[C@@H]1O)=C\C[C@@H]1O[C@H](C)[C@H](NC(=O)/C=C\[C@H](C)OC(=O)N(C)C)C[C@@H]1C` [Compound 38d] were, in that order, 0.58 nM, 0.54 nM, 0.53 nM and 0.39 nM.
Regarding `CC(/C=C/[C@H]1OC(C)(C)C[C@@]2(CO2)[C@@H]1O)=C\C[C@@H]1O[C@H](C)[C@H](NC(=O)/C=C\[C@H](C)OC(=O)c2ccccc2)C[C@@H]1C` [Compound 38e], the IC50 in the test with L1210 came to 1.8 nM; with HCT116 (setting [1]), 0.72 nM; in the test with HCT116/VM46 (setting [2]), 0.65 nM; in the test with MCF-7 (setting [3]) it was 2.4 nM.
For `CC(/C=C/[C@H]1OC(C)(C)C[C@@]2(CO2)[C@@H]1O)=C\C[C@@H]1O[C@H](C)[C@H](NC(=O)/C=C\[C@H](C)OC(=O)C(C)(C)C)C[C@@H]1C` [Compound 38f], the IC50 in the test with L1210 stood at 1.2 nM; with HCT116 (setting [1]) it was 3.5 nM; with HCT116/VM46 (setting [2]), 2.4 nM. Further, the “fold less potent than 1” value in the test on HCT116 (relative to meayamycin (1), cell line not given) was 5 fold.
As for `CC(=O)O[C@@H](C)/C=C\C(=O)N[C@@H]1C[C@H](C)[C@H](C/C=C(C)/C=C/[C@H]2OC(C)(C)C[C@@]3(CO3)[C@@H]2O)O[C@@H]1C` [Meayamycin (1), Meayamycin, reference compound], the IC50 in the test with L1210 was 0.54 nM; with HCT116 (setting [1]) it was 0.56 nM; in the test with HCT116/VM46 (setting [2]), 0.51 nM; in the test on MCF-7 (setting [3]), 0.31 nM.
Regarding `CC(/C=C/[C@H]1OC(C)(C)C[C@@]2(CO2)[C@@H]1O)=C\C[C@@H]1O[C@H](C)[C@H](NC(=O)/C=C\[C@H](C)OC(=O)N2CCOCC2)C[C@@H]1C` [Meayamycin B (38a), Meayamycin B], the IC50 is 0.49 nM in the test on HCT116 (Homo sapiens, HCT-116, read-out: Cell Line (IC50, nM) HCT116); 0.55 nM with HCT116/VM46 (Homo sapiens, HCT-116/VM46, read-out: Cell Line (IC50, nM) HCT116/ VM46); 0.39 nM with MCF-7 (Homo sapiens, MCF7, read-out: Cell Line (IC50, nM) MCT-7).
